# Experimental data reported in the supplement of paper PMC11451515.
# Test system: SEM cells
# Test: cell viability relative to DMSO control; higher = less cytotoxic
# Settings: 48 h
# Outline: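 Viability was expressed as a per-plate percentage of DMSO wells, with cell-free wells as background. Leukemia cells (NOMO1 or SEM at 500 cells/well, P12-Ichikawa at 1000 cells/well) were adapted for at least four passages in each medium and seeded in 1536-well plates (5 μl). Library compounds in DMSO were pin-dosed over an 11-point threefold series from 47 μM to 0.79 nM, and CellTiter-Glo One luminescence was read after 48 h at 37°C.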
# [1] = HPLM + 10% dialyzed FBS, 0.000781 µM
# [2] = HPLM + 10% dialyzed FBS, 0.00234 µM
# [3] = HPLM + 10% dialyzed FBS, 0.00702 µM
# [4] = HPLM + 10% dialyzed FBS, 0.0211 µM
# [5] = HPLM + 10% dialyzed FBS, 0.0632 µM
# [6] = HPLM + 10% dialyzed FBS, 0.19 µM
# [7] = HPLM + 10% dialyzed FBS, 0.569 µM
# [8] = HPLM + 10% dialyzed FBS, 1.71 µM
# [9] = HPLM + 10% dialyzed FBS, 5.12 µM
# [10] = HPLM + 10% dialyzed FBS, 15.4 µM
# [11] = HPLM + 10% dialyzed FBS, 46.1 µM
# [12] = RPMI 5 mM glucose + 10% FBS, 0.000781 µM
# [13] = RPMI 5 mM glucose + 10% FBS, 0.00234 µM
# [14] = RPMI 5 mM glucose + 10% FBS, 0.00702 µM
# [15] = RPMI 5 mM glucose + 10% FBS, 0.0211 µM
# [16] = RPMI 5 mM glucose + 10% FBS, 0.0632 µM
# [17] = RPMI 5 mM glucose + 10% FBS, 0.19 µM
# [18] = RPMI 5 mM glucose + 10% FBS, 0.569 µM
# [19] = RPMI 5 mM glucose + 10% FBS, 1.71 µM
# [20] = RPMI 5 mM glucose + 10% FBS, 5.12 µM
# [21] = RPMI 5 mM glucose + 10% FBS, 15.4 µM
# [22] = RPMI 5 mM glucose + 10% FBS, 46.1 µM
# [23] = RPMI 5 mM glucose + 10% dialyzed FBS, 0.000781 µM
# [24] = RPMI 5 mM glucose + 10% dialyzed FBS, 0.00234 µM
# [25] = RPMI 5 mM glucose + 10% dialyzed FBS, 0.00702 µM
# [26] = RPMI 5 mM glucose + 10% dialyzed FBS, 0.0211 µM
# [27] = RPMI 5 mM glucose + 10% dialyzed FBS, 0.0632 µM
# [28] = RPMI 5 mM glucose + 10% dialyzed FBS, 0.19 µM
# [29] = RPMI 5 mM glucose + 10% dialyzed FBS, 0.569 µM
# [30] = RPMI 5 mM glucose + 10% dialyzed FBS, 1.71 µM
# [31] = RPMI 5 mM glucose + 10% dialyzed FBS, 5.12 µM
# [32] = RPMI 5 mM glucose + 10% dialyzed FBS, 15.4 µM
# [33] = RPMI 5 mM glucose + 10% dialyzed FBS, 46.1 µM
SMILES,cell viability [1] [%],cell viability [2] [%],cell viability [3] [%],cell viability [4] [%],cell viability [5] [%],cell viability [6] [%],cell viability [7] [%],cell viability [8] [%],cell viability [9] [%],cell viability [10] [%],cell viability [11] [%],cell viability [12] [%],cell viability [13] [%],cell viability [14] [%],cell viability [15] [%],cell viability [16] [%],cell viability [17] [%],cell viability [18] [%],cell viability [19] [%],cell viability [20] [%],cell viability [21] [%],cell viability [22] [%],cell viability [23] [%],cell viability [24] [%],cell viability [25] [%],cell viability [26] [%],cell viability [27] [%],cell viability [28] [%],cell viability [29] [%],cell viability [30] [%],cell viability [31] [%],cell viability [32] [%],cell viability [33] [%]
OC1=C(O)C2=C(\C=C/C(=O)O2)C=C1,82.7,94.1,90.2,101,65.4,102,98.4,103,99.1,93.9,9.29,91.8,106,98.1,91.6,70,91.8,98.3,102,102,93.5,7.55,83.2,101,98.9,102,78.8,101,112,101,90.4,90.3,9.04
CNC1CCC(N(Cc2cccc(-c3ccncc3)c2)C(=O)c2sc3ccccc3c2Cl)CC1 (centres undefined),86.2,93.2,104,90.6,87.9,105,95.5,25.6,4.92,3.48,2.45,90.1,83.7,100,114,88.5,97.4,18.2,6.65,5.64,3.32,1.88,76.6,82.9,95.5,98.5,77.7,99.1,81.6,6.38,5.65,3.68,2.48
C\C1=C\C(=O)OC2=C1C=CC(=C2)O,120,114,126,119,118,119,128,77.1,122,111,109,98.1,118,108,104,118,110,118,87.3,108,97.1,92.1,120,119,146,136,135,117,114,75.2,117,117,115
CC(=O)Oc1ccccc1C(=O)O,104,99.4,105,106,102,106,105,97.3,88.2,99.9,96.7,110,104,100,120,107,104,120,111,99.3,105,95.1,102,99.4,109,111,108,102,113,108,108,100,111
FC(F)(F)c1ccc(/C=C/c2nc(COc3ccc(CCCCn4ccnn4)cc3)co2)cc1,116,119,123,108,103,111,109,108,103,109,98.7,117,103,116,95.3,105,78.3,104,81,94.2,94.4,85.7,110,124,103,91.3,95.9,86,82.3,84.9,79.3,70.9,84
CCC1(C)CC(=O)NC1=O (centres undefined),107,102,109,112,114,114,106,95.5,110,94.5,81.7,113,101,107,107,103,106,106,93.7,103,92.3,72.3,93.7,114,117,114,116,108,110,99.7,108,94,74.3
C[C@](O)(COc1ccc(C#N)cc1)C(=O)Nc1ccc(C#N)c(C(F)(F)F)c1,70.4,77,90.7,84.9,91.3,95.5,87,84.4,90.5,21.9,89.6,84.9,70.4,99.6,104,90.5,93,102,87.3,103,14.7,39.5,83,81.6,91.9,91.5,95.6,107,97.6,93.9,91,20.1,49.7
OC[C@H]1O[C@@H](O[C@@H]2[C@@H](CO)O[C@](O)(CO)[C@H]2O)[C@H](O)[C@@H](O)[C@H]1O,103,96.4,105,110,113,100,109,108,105,63.5,93.7,102,85,108,112,94.1,97.2,102,96.2,93.3,68.9,95.8,95.6,82.5,102,116,101,105,94.6,106,82.8,72.2,96.4
